The text below walks through data of patent publication US20120053148A1, “INHIBITORS OF HEPATITIS C VIRUS” (GILEAD SCIENCES, INC., priority 2010, published 2012).

In one assay the test system is HCV Replicon IA. The assay can be described thus: HCV replicon assay in Huh-7 cells, genotype 1a. The format is cell-based. The conditions noted are these: Hepatitis C virus, 72 h, Huh-7 HCV replicon cells, 3 days. For orientation: In antiviral work, replicon cells carry a viral genome segment that copies itself.
A further assay concerns HCV Replicon IB. Description: HCV replicon assay in Huh-7 cells, genotype 1b (Rluc luciferase readout). Format: cell-based, hepatitis C virus. The conditions noted are these: Hepatitis C virus, 3 days; for inhibition at 10 µM: 72 h; for EC50: Huh-7, 72 h, HCV1B replicon, read-out: EC50_HCV1B_.
[1] abbreviates: 10 μM, Huh-7 HCV replicon cells, read-out: % inhibition @ 10 μM HCV Replicon IB.
[2] abbreviates: 10 uM, 1b-Rluc replicon, Huh-7 cells, read-out: Inhibition @ 10 uM in 1b-Rluc.

What is called inhibition is the drop in the measured response relative to a control, in per cent.

SMILES strings stand for the structures. Like-named read-outs stand apart in the source and are kept apart here.

Regarding `Nc1cc(O)c2cc(-c3ccccc3)cc(C(F)(F)F)c2n1` [Compound 39], the inhibition at 10 µM in the assay on HCV Replicon IA came out at 92.5%; in the assay on HCV Replicon IB (setting [1]) it was 65%.
For `Nc1cc(C(=O)NCc2ccccn2)nc2c(C(F)(F)F)cc(-c3ccccc3)cc12` [Compound 68], in that order: 99.9% and 99.7%.
The matching figures for `Cc1cc(C(=O)NCc2cccs2)nc2c(C(F)(F)F)cc(-c3ccoc3)cc12` [Compound 28]: 99.8% and 100%.
The matching figures for `O=C(NCc1ccncn1)c1cc(O)c2cc(-c3cn[nH]c3)cc(C(F)(F)F)c2n1` [Compound 15]: 59.3% and 47.3%.
With `C[C@@H](NC(=O)c1cc(O)c2cc(-c3cn[nH]c3)cc(C(F)(F)F)c2n1)c1ccccc1` (single isomer, unassigned) [Compound 18], the inhibition at 10 µM was determined as 55.3% in the assay with HCV Replicon IA and 55.8% in the assay on HCV Replicon IB (setting [1]).
For `O=C(NCc1cocn1)c1cc(O)c2cc(-c3cn[nH]c3)cc(C(F)(F)F)c2n1` [Compound 10], in that order: 80.7% and 74.3%.
For `O=C(NCc1ccccn1)c1cc(Cl)c2cc(-c3ccccc3)cc(C(F)(F)F)c2n1` [Compound 67], in that order: 96.9% and 97.8%.
As for `O=C(NCc1cccs1)c1nc(N2CCCC2)c2cc(-c3ccccc3)cc(C(F)(F)F)c2n1` [Compound 53], the inhibition at 10 µM in the assay on HCV Replicon IA stood at 91.4%; in the assay on HCV Replicon IB (setting [1]) it was 86.2%.
For `O=C(c1cc(O)c2cc(-c3ccoc3)cc(C(F)(F)F)c2n1)N1CC=C(c2ccccc2)CC1` [Compound 29], in that order: 87.4% and 37.7%.
For `Cc1cccnc1CNC(=O)c1cc(O)c2cc(-c3cn[nH]c3)cc(C(F)(F)F)c2n1` [Compound 17], in that order: 98.3% and 96.4%.
The matching figures for `O=C(NCc1ccccn1)c1cc(O)c2cc(-c3cn[nH]c3)cc(C(F)(F)F)c2n1` [Compound 12]: 98.2% and 99.2%.
Consider `O=C(NCc1cccs1)c1cc(O)c2cc(-c3cc[nH]n3)cc(C(F)(F)F)c2n1` [Compound 35], for which the results for the inhibition at 10 µM with HCV Replicon IA and with HCV Replicon IB (setting [1]) were 94.2% and 94.5%, respectively.
For `O=C(NCc1nccs1)c1cc(O)c2cc(-c3cn[nH]c3)cc(C(F)(F)F)c2n1` [Compound 9], in that order: 98.1% and 98.5%.
The matching figures for `O=C(c1cc(O)c2cc(-c3ccoc3)cc(C(F)(F)F)c2n1)N1CCC(c2ccc(F)cc2)CC1` [Compound 30]: 95.3% and 74.9%.
As to `Nc1cc(C(=O)NCc2cccs2)nc2c(C(F)(F)F)cc(-c3ccccc3)cc12` [Compound 66], the inhibition at 10 µM in the assay with HCV Replicon IA and with HCV Replicon IB (setting [1]) was 99.9% each time.
On to `O=C(NCc1ccncc1)c1cc(O)c2cc(-c3cn[nH]c3)cc(C(F)(F)F)c2n1` [Compound 13], for which the values for the inhibition at 10 µM in the assay with HCV Replicon IA and in the assay with HCV Replicon IB (setting [1]) were 43.4% and 20.7%, respectively.
The matching figures for `O=C(NCc1cccnc1)c1cc(O)c2cc(-c3cn[nH]c3)cc(C(F)(F)F)c2n1` [Compound 11]: 63.2% and 66.1%.
With `O=C(NCc1cccs1)c1cc(O)c2cc(-c3ccoc3)cc(C(F)(F)F)c2n1` [Compound 7], the inhibition at 10 µM in the assay on HCV Replicon IA is 99.2%; in the assay with HCV Replicon IB (setting [1]), 99.8%.
The matching figures for `O=C(NCc1cncs1)c1cc(O)c2cc(-c3cn[nH]c3)cc(C(F)(F)F)c2n1` [Compound 8]: 98.8% and 94%.
The matching figures for `O=C(NCc1cccs1)c1cc(O)c2cc(-c3ccccc3)cc(C(F)(F)F)c2n1` [Compound 34]: 97.8% and 98.3%.
In the case of `CNc1nc(C(=O)NCc2cccs2)nc2c(C(F)(F)F)cc(-c3ccccc3)cc12` [Compound 52], the values for the inhibition at 10 µM in the assay on HCV Replicon IA and in the assay on HCV Replicon IB (setting [1]) were 99.6% and 100%, respectively.
For `O=C(NCc1cccs1)c1cc(Cl)c2cc(-c3ccoc3)cc(C(F)(F)F)c2n1` [Compound 25], in that order: 98.7% and 99.7%.
Take `CC(C)(C)c1cc(C2CC2)cc2c(N)cc(C(=O)NCc3ccccn3)nc12` [Compound 230]: in the assay on HCV Replicon IB (setting [2]), the inhibition at 10 µM was 100%.
On to `Cc1cc(-c2nnc(N[C@H]3C[C@](O)(C(F)S(=O)(=O)c4ccccc4)C3)o2)nc2c(C(C)(C)C)cc(OCC(F)(F)F)cc12` (stereo partly shown) [Compound 481], for which, in the assay on HCV Replicon IB (Huh-7 cells), the EC50 is 2880 nM.
For the molecule `Cc1cc(-c2nnc(NCC(=O)N(C)C)o2)nc2c(C(F)(F)F)cc(C3CC3)cc12` [Compound 248], the inhibition at 10 µM in the assay on HCV Replicon IB (setting [2]) was 99.9%.
On to `Cc1cc(C(=O)NC[C@@H]2CC(F)(F)CCN2)nc2c(C(F)(F)F)cc(OC(F)F)cc12` (single isomer, unassigned) [Compound 202], for which the inhibition at 10 µM in the assay on HCV Replicon IB (setting [2]) is 99.5%.
`CC(C)(C)c1cc(C2CC2)cc2c(Cl)cc(-c3nnc(Nc4ccccc4)o3)nc12` [Compound 349]: in the assay with HCV Replicon IB (Huh-7 cells), the EC50 is 26.9 nM.
On the same count and under the same terms, the value for `CC(C)(C)c1cc(C2CC2)cc2c(N)cc(-c3nnc(NCCCO)s3)nc12` [Compound 384] was 3.66 nM; that for `Cc1cc(-c2nnc(N[C@H]3C[C@@](O)(CF)C3)o2)nc2c(C(C)(C)C)cc(OCC(F)(F)F)cc12` [Compound 517] was 5.76 nM; that for `CCCCCNc1nnc(-c2cc(C)c3cc(C4CC4)cc(C(F)(F)F)c3n2)o1` [Compound 388] was 13.2 nM.
`Cc1cc(C(=O)NCc2ccc(C#N)cn2)nc2c(C(F)(F)F)cc(C3CC3)cc12` [Compound 112]: the inhibition at 10 µM in the assay on HCV Replicon IB (setting [2]) was determined as 99.7%.
For the molecule `Cc1cc(-c2nnc(N[C@H]3C[C@@](O)(CF)C3)o2)nc2c(C(C)(C)C)cc(C3CC3)cc12` [Compound 516], the EC50 in the assay with HCV Replicon IB (Huh-7 cells) was 7.15 nM.
The same measure, in the same setting: then `CC(C)(C)c1cc(C2CC2)cc2c(N)cc(-c3nnc(NCCCCO)o3)nc12` [Compound 355], with 3.24 nM; and `CCC(O)CNC(=O)c1cc(N)c2cc(C3CC3)cc(C(C)(C)C)c2n1` (stereo not shown) [Compound 326], with 13.8 nM; and `Cc1cc(-c2nnc(N[C@H]3C[C@@H](OP(=O)(O)O)C3)o2)nc2c(C(C)(C)C)cc(OCC(F)(F)F)cc12` [Compound 480], with 1.24 nM.
As for `Cc1cc(C(=O)NCC2(O)CC2)nc2c(C(F)(F)F)cc(-c3ccccc3)cc12` [Compound 163], the inhibition at 10 µM in the assay with HCV Replicon IB (setting [2]) turned out to be 98.3%.
For `O=C(NCC1C[S+]([O-])CCN1)c1cc(Cl)c2cc(OC(F)F)cc(C(F)(F)F)c2n1` (stereo not shown) [Compound 196], in the assay on HCV Replicon IB (setting [2]), the inhibition at 10 µM was 55%.
With `Cc1cc(-c2nnc(NCC(F)(F)CO)o2)nc2c(C(C)(C)C)cc(OCC(F)(F)F)cc12` [Compound 459], the EC50 in the assay with HCV Replicon IB (Huh-7 cells) was determined as 4.32 nM.
Take `Nc1cc(C(=O)NCc2ccccn2)nc2c(OC(F)(F)F)cc(C3CC3)cc12` [Compound 235]: in the assay with HCV Replicon IB (setting [2]), the inhibition at 10 µM amounted to 100%.
Regarding `Cc1cc(C(=O)NC[C@@H]2C[C@](C)(O)CN2)nc2c(C(C)(C)C)cc(C3CC3)cc12` [Compound 429], the EC50 in the assay on HCV Replicon IB (Huh-7 cells) is 294 nM.
Consider `Cc1cc(-c2nnc(NCCCCCO)o2)nc2c(C(F)(F)F)cc(C3CC3)cc12` [Compound 259], for which, in the assay on HCV Replicon IB (setting [2]), the inhibition at 10 µM stood at 98.4%.
Turning to `CCCCNc1nnc(-c2cc(N)c3cc(C4CC4)cc(C(C)(C)C)c3n2)o1` [Compound 344], the EC50 in the assay on HCV Replicon IB (Huh-7 cells) came out at 11 nM.
